# Test system: MDCK II-WT, MDCK II-MRP2, MDCK II-BCRP and MDCK II-MRP3 cells
# Assay: MTT cell proliferation assay
# Format: cell-based
# Conditions: experimentally selected concentrations
# Text: The effect of PEG400 on baicalin transport was investigated in MDCKII-WT, MDCKII-MRP2, MDCK II-BCRP, and MDCK II-MRP3 cell monolayer models. First, an MTT cell proliferation assay was used to evaluate the effects of baicalin as well as PEG400 concentration on […]. […] The results of the transporter experiments are shown in Figure 5 and Table 2, which indicate that the exocytosis ratio of MDCKII-WT cells in the control group for the transport of the substrate baicalin was 2.58 ± 0.27. This implies that the transport of baicalin through the cell membrane is mediated by a transporter. For the MDCK-WT cell model, the exocytosis ratios of baicalin decreased to 1.94 ± 0.27, 1.53 ± 0.14, and 1.19 ± 0.12, respectively, in response to low, medium, and high concentrations of PEG400. […] Consistent results were obtained in the MDCK II-MRP2 and MDCK II-BCRP cell models, where the percentage of baicalin efflux was reduced, from 2.45 ± 0.04 and 3.01 ± 0.05 to 2.22 ± 0.17, 1.08 ± 0.09, and 0.8 ± 0.04, respectively, and 1.59 ± 0.06, 1.02 ± 0.04, and 0.8 ± 0.02 in a concentration-dependent decrease. The results of the efflux ratio of baicalin in MDCK-WT, MDCK-MRP2, and MDCK-BCRP cell monolayers by 0.25%, 0.5%, and 1% PEG400 are shown in Figure 5f.
# Figure 4 The effect diagram of cell vitality. (a,b) The effects of different concentrations of baicalin and PEG400 on the survival of MDCK II-WT cells. […]
structure (smiles),measurement,value
"O=C(O)[C@H]1O[C@@H](Oc2cc3oc(-c4ccccc4)cc(=O)c3c(O)c2O)[C@H](O)[C@@H](O)[C@@H]1O [BG, Baicalein-7-O-β-D-glucuronide]",effect on cell proliferation (MTT),no significant effect on the proliferation

# — paper PMC11206988, “Study on the Effect of Pharmaceutical Excipient PEG400 on the Pharmacokinetics of Baicalin in Cells Based on MRP2, MRP3, and BCRP Efflux Transporters” (Pharmaceutics, 2024)
